Laboratory results reported in PubChem BioAssay (NCI).
Several values for one entry are separate records, joined by “and”; a condition that tells them apart may be missing. Equal values may be shown once.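 Protocol summary: plate cells (96-well), add compound at 5 concentrations, incubate 48 h, interpolate endpoints linearly. GI50 marks 50% less growth. At the TGI there is no net growth.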

Columns and labels:
Test in all cases: inhibition of tumour cell growth, NCI panel, 48 h
786-0 renal = tested on: 786-0 renal
NCI/ADR-RES ovarian = tested on: NCI/ADR-RES ovarian
HOP-18 NSCLC = tested on: HOP-18 NSCLC
HCC-2998 colon = tested on: HCC-2998 colon
MOLT-4 leukemia = tested on: MOLT-4 leukemia
SNB-75 CNS = tested on: SNB-75 CNS
MDA-MB-231 breast = tested on: MDA-MB-231 breast
SR leukemia = tested on: SR leukemia
SF-295 CNS = tested on: SF-295 CNS
MALME-3M melanoma = tested on: MALME-3M melanoma
HOP-62 NSCLC = tested on: HOP-62 NSCLC
SNB-19 CNS = tested on: SNB-19 CNS
SK-MEL-2 melanoma = tested on: SK-MEL-2 melanoma
SF-268 CNS = tested on: SF-268 CNS
M19-MEL melanoma = tested on: M19-MEL melanoma
MCF7 breast = tested on: MCF7 breast
KM12 colon = tested on: KM12 colon
SF-539 CNS = tested on: SF-539 CNS
OVCAR-5 ovarian = tested on: OVCAR-5 ovarian
OVCAR-3 ovarian = tested on: OVCAR-3 ovarian
SK-MEL-5 melanoma = tested on: SK-MEL-5 melanoma
A498 renal = tested on: A498 renal
EKVX NSCLC = tested on: EKVX NSCLC
T-47D breast = tested on: T-47D breast
UACC-257 melanoma = tested on: UACC-257 melanoma
HCT-116 colon = tested on: HCT-116 colon
TK-10 renal = tested on: TK-10 renal
UACC-62 melanoma = tested on: UACC-62 melanoma
DU-145 prostate = tested on: DU-145 prostate
HCT-15 colon = tested on: HCT-15 colon
A549 NSCLC = tested on: A549 NSCLC
OVCAR-4 ovarian = tested on: OVCAR-4 ovarian
DMS 114 small cell lung = tested on: DMS 114 small cell lung
HL-60(TB) leukemia = tested on: HL-60(TB) leukemia
MDA-MB-435 = tested on: MDA-MB-435
M14 melanoma = tested on: M14 melanoma
NCI-H23 lung = tested on: NCI-H23 lung
BT-549 breast = tested on: BT-549 breast
SNB-78 CNS = tested on: SNB-78 CNS
SK-OV-3 ovarian = tested on: SK-OV-3 ovarian
ACHN renal = tested on: ACHN renal
U251 CNS = tested on: U251 CNS
COLO 205 colon = tested on: COLO 205 colon
NCI-H460 lung = tested on: NCI-H460 lung
DLD-1 colon = tested on: DLD-1 colon
SK-MEL-28 melanoma = tested on: SK-MEL-28 melanoma
HT29 colon = tested on: HT29 colon
CCRF-CEM leukemia = tested on: CCRF-CEM leukemia
RXF 393 renal = tested on: RXF 393 renal
DMS 273 small cell lung = tested on: DMS 273 small cell lung
HOP-92 NSCLC = tested on: HOP-92 NSCLC

CCCCCCCCCCCC[C@@H](O)[C@H]1CC[C@H]([C@H](O)CCCC[C@H](O)CCCCC[C@@H](O)CC2=C[C@H](C)OC2=O)O1
TGI (786-0 renal): 6.42 µM and 8.45 µM | TGI (NCI/ADR-RES ovarian): 5.42 µM and 11.2 µM | TGI (HOP-18 NSCLC): 15.5 µM | TGI (HCC-2998 colon): 10.6 µM | GI50 (MOLT-4 leukemia): 1.74 µM and 0.891 µM | TGI (MOLT-4 leukemia): 4.06 µM | GI50 (SNB-75 CNS): 4.02 µM | TGI (SNB-75 CNS): 7.77 µM and 10.3 µM | GI50 (MDA-MB-231 breast): 2.86 µM | TGI (MDA-MB-231 breast): 7.56 µM and 10.6 µM | GI50 (SR leukemia): 1.11 µM | TGI (SR leukemia): 3.87 µM | TGI (SF-295 CNS): 5.31 µM and 8.02 µM | GI50 (MALME-3M melanoma): 3.49 µM | TGI (MALME-3M melanoma): 8.59 µM | GI50 (HOP-62 NSCLC): 3.98 µM | TGI (HOP-62 NSCLC): 5.41 µM and 10.6 µM | GI50 (SNB-19 CNS): 2.32 µM | TGI (SNB-19 CNS): 5.45 µM and 11.4 µM | GI50 (SK-MEL-2 melanoma): 1.3 µM | TGI (SK-MEL-2 melanoma): 2.6 µM and 1.68 µM | GI50 (SF-268 CNS): 2.38 µM | TGI (SF-268 CNS): 6.01 µM and 11.2 µM | TGI (M19-MEL melanoma): 5.71 µM | TGI (MCF7 breast): 5.13 µM and 6.79 µM | GI50 (KM12 colon): 1.98 µM | TGI (KM12 colon): 5.17 µM and 12.3 µM | GI50 (SF-539 CNS): 4.18 µM | TGI (SF-539 CNS): 5.59 µM and 11.2 µM | GI50 (OVCAR-5 ovarian): 1.59 µM and 5.77 µM | TGI (OVCAR-5 ovarian): 3.05 µM and 17.9 µM | GI50 (OVCAR-3 ovarian): 1.41 µM and 1.56 µM | TGI (OVCAR-3 ovarian): 2.71 µM and 4.05 µM | GI50 (SK-MEL-5 melanoma): 0.275 µM | TGI (SK-MEL-5 melanoma): 7.16 µM and 2.21 µM | GI50 (A498 renal): 5.27 µM | TGI (A498 renal): 9.41 µM and 13.6 µM | GI50 (EKVX NSCLC): 2.17 µM | TGI (EKVX NSCLC): 6.88 µM and 12.5 µM | GI50 (T-47D breast): 1.74 µM | TGI (T-47D breast): 14.1 µM | GI50 (UACC-257 melanoma): 0.0724 µM | TGI (UACC-257 melanoma): 5.68 µM and 3.36 µM | GI50 (HCT-116 colon): 0.425 µM | TGI (HCT-116 colon): 5.2 µM and 6.56 µM | GI50 (TK-10 renal): 3.94 µM | TGI (TK-10 renal): 6.59 µM and 15.3 µM | TGI (UACC-62 melanoma): 5.14 µM and 6.06 µM | GI50 (DU-145 prostate): 7.93 µM | TGI (DU-145 prostate): 21.3 µM | GI50 (HCT-15 colon): 2.83 µM | TGI (HCT-15 colon): 5.8 µM and 9.73 µM | GI50 (A549 NSCLC): 1.71 µM | TGI (A549 NSCLC): 8.37 µM and 11.3 µM | TGI (OVCAR-4 ovarian): 10.6 µM | TGI (DMS 114 small cell lung): 0.371 µM | GI50 (HL-60(TB) leukemia): 0.548 µM and < 0.0574 µM | TGI (HL-60(TB) leukemia): 4.24 µM and 2.13 µM | GI50 (MDA-MB-435): 2.26 µM | TGI (MDA-MB-435): 5.43 µM and 12 µM | TGI (M14 melanoma): 5.25 µM and 10.4 µM | GI50 (NCI-H23 lung): < 0.051 µM | TGI (NCI-H23 lung): 5.8 µM and 10.2 µM | TGI (BT-549 breast): 24 µM | TGI (SNB-78 CNS): 15.2 µM | TGI (SK-OV-3 ovarian): 11.4 µM | GI50 (ACHN renal): 2.74 µM | TGI (ACHN renal): 6.53 µM and 14.9 µM | GI50 (U251 CNS): 3.31 µM | TGI (U251 CNS): 11.6 µM | GI50 (COLO 205 colon): 3.47 µM | TGI (COLO 205 colon): 3.52 µM | GI50 (NCI-H460 lung): 2.4 µM | TGI (NCI-H460 lung): 5.16 µM and 11.7 µM | TGI (DLD-1 colon): 11.5 µM | GI50 (SK-MEL-28 melanoma): 3.77 µM | TGI (SK-MEL-28 melanoma): 6.19 µM and 9.93 µM | TGI (HT29 colon): 5.64 µM and 8.54 µM | GI50 (CCRF-CEM leukemia): 1.98 µM | TGI (CCRF-CEM leukemia): 7.58 µM | TGI (RXF 393 renal): 8.02 µM | TGI (DMS 273 small cell lung): 5.55 µM | TGI (HOP-92 NSCLC): 6.23 µM and 9.94 µM
